Test system: T-47D spheroids with HUVEC/MSC, viability
Test: Anticancer human tumor T-47D cell line growth inhibition [PI3K];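 also: spheroids exposed to agents for seven days before reading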;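 as to viability, T/C: percent of DMSO vehicle control luminescence so 100% = untreated growth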
Conditions: for IC50: curve of first compound; for viability, T/C: stronger effect = lower value
Source text: Combinatorial screen of targeted agents with the PI3K inhibitors inavolisib, alpelisib, duvelisib, and copanlisib in multi-cell type tumor spheroids
A high-throughput screen of multi-cell type tumor spheroids was designed to identify active combinations of targeted small molecules and PI3K pathway inhibitors. Complex spheroids include a stromal component modeled by human endothelial cells (HUVEC) and fibroblasts modeled by human mesenchymal stem cells (MSCs). The concentration ranges selected for each drug and investigational agent were based upon clinically achievable concentrations if the clinical Cmax of the agent was known.
Compounds. The drugs and investigational agents: inavolisib (NSC800729), alpelisib (NSC765974), duvelisib (NSC772469), copanlisib (NSC816437), ipatasertib (NSC767898), afuresertib (NSC778305), talazoparib (NSC767125), sapanisertib (NSC764658), selumetinib (NSC741078), tovorafenib (DAY101, NSC766906), vemurafenib (NSC761431), ravoxertinib (NSC781343), sotorasib (NSC818433), MRTX1133 (NSC 836407), abemaciclib (NSC 768073), palbociclib (NSC758247), venetoclax (NSC 766270), SY5609 (NSC837396), enzalutamide (NSC755605), and darolutamide (NSC825331), were obtained from the National Cancer Institute (NCI) Developmental Therapeutics Program Chemical Repository. The FDA-approved anticancer drug set is available from the NCI Developmental Therapeutics Program. […] The stock solutions were prepared in dimethyl sulfoxide (DMSO, Sigma-Aldrich, St. Louis, MO, cat. D2650) at 800-fold the tested concentration and stored at -70 degrees C prior to their use. All drugs and investigational agents were tested over a range starting from a high concentration at or near the clinical Cmax and decreasing in half-log increments. If the clinical Cmax for an agent had not been determined, the highest concentration tested was 10 microM.
Cell Culture. All cells were maintained in an incubator at 37 degrees C and 5% CO2 with 95% humidity. The PDC lines were cultured according to standard operating procedures established by the NCI PDMR (https://pdmr.cancer.gov/sops/default.htm). All PDCs were thawed and cultured in Matrigel-coated flasks prepared with a working solution of 1X Ham's F-12 nutrient mix, without supplementation (Invitrogen, Waltham, MA, cat. 11765054), 100 U/mL penicillin-streptomycin (Invitrogen, cat. 15140122), and 2.5% Matrigel (Corning Inc., Corning, NY, cat. 354248) for the first three passages. The 354836-022-R-J1-PDC, 475296-252-R-J1-PDC, and 997726-040-R-J2-PDC lines were cultured in 6A media, which includes advanced DMEM/F-12 (Thermo Fisher Scientific, cat. 12634028), 10 mM HEPES (Thermo Fisher Scientific, cat. 15630080), 1X GlutaMAX supplement (Thermo Fisher Scientific, cat. 35050061), 0.1 mg/mL primocin (InvivoGen, San Diego, CA, cat. ant-pm-2), 10% defined fetal bovine serum, heat inactivated (HyClone Laboratories Inc., Logan, UT, cat. SH30070.03HI), 50% L-WRN conditioned media (ATCC, cat. CRL-3276), 1.25 mM N-Acetyl-L-cysteine (Sigma-Aldrich, cat. A9165), 10 mM nicotinamide (Sigma-Aldrich, cat. N0636), 1X B-27 supplement (Thermo Fisher Scientific, cat. 17504044), 1X N-2 supplement (Thermo Fisher Scientific, cat. 17502048), and 10 microM Y-27632 dihydrochloride (Tocris Bioscience, Bristol, United Kingdom, cat. 1254). The 624824-186-R-J2-PDC line was cultured in 6C/Colon 1B media, which includes all 6A media components plus 50 ng/mL human EGF recombinant protein (Thermo Fisher Scientific, cat. PHG0311). […]

[1] = second compound 0.0316 µM, first compound 0.0316 µM
[2] = second compound 0.0316 µM, first compound 0.1 µM
[3] = second compound 0.1 µM, first compound 0.0316 µM
[4] = second compound 0.1 µM, first compound 0.1 µM
[5] = second compound 0.316 µM, first compound 0.0316 µM
[6] = second compound 0.316 µM, first compound 0.1 µM
[7] = second compound 1 µM, first compound 0.0316 µM
[8] = second compound 1 µM, first compound 0.1 µM

SMILES: CC(=O)c1c(C)c2cnc(Nc3ccc(N4CCNCC4)cn3)nc2n(C2CCCC2)c1=O + Cc1nc(NC(=O)N2CCCC2C(N)=O)sc1-c1ccnc(C(C)(C)C(F)(F)F)c1
- IC50 (second compound 0.0316 µM): > 100 nM
- IC50 (second compound 0.1 µM): > 100 nM
- IC50 (second compound 0.316 µM): > 100 nM
- IC50 (second compound 1 µM): > 100 nM
- IC50 (second compound 3.16 µM): 30.4 nM
- IC50 (second compound 10 µM): < 0.316 nM
- viability, T/C (second compound 0.0316 µM, first compound 0.000316 µM): 109%
- viability, T/C (second compound 0.0316 µM, first compound 0.001 µM): 101%
- viability, T/C (second compound 0.0316 µM, first compound 0.00316 µM): 98.8%
- viability, T/C (second compound 0.0316 µM, first compound 0.01 µM): 98.4%
- viability, T/C [1]: 92.1%
- viability, T/C [2]: 89.2%
- viability, T/C (second compound 0.1 µM, first compound 0.000316 µM): 101%
- viability, T/C (second compound 0.1 µM, first compound 0.001 µM): 100%
- viability, T/C (second compound 0.1 µM, first compound 0.00316 µM): 95.8%
- viability, T/C (second compound 0.1 µM, first compound 0.01 µM): 107%
- viability, T/C [3]: 95.5%
- viability, T/C [4]: 83%
- viability, T/C (second compound 0.316 µM, first compound 0.000316 µM): 98.3%
- viability, T/C (second compound 0.316 µM, first compound 0.001 µM): 110%
- viability, T/C (second compound 0.316 µM, first compound 0.00316 µM): 88%
- viability, T/C (second compound 0.316 µM, first compound 0.01 µM): 99.5%
- viability, T/C [5]: 95.2%
- viability, T/C [6]: 75.3%
- viability, T/C (second compound 1 µM, first compound 0.000316 µM): 98.4%
- viability, T/C (second compound 1 µM, first compound 0.001 µM): 90.7%
- viability, T/C (second compound 1 µM, first compound 0.00316 µM): 85.9%
- viability, T/C (second compound 1 µM, first compound 0.01 µM): 82.7%
- viability, T/C [7]: 86.6%
- viability, T/C [8]: 61.8%
- viability, T/C (second compound 3.16 µM, first compound 0.000316 µM): 65.7%
- viability, T/C (second compound 3.16 µM, first compound 0.001 µM): 66.8%
- viability, T/C (second compound 3.16 µM, first compound 0.00316 µM): 69.3%
- viability, T/C (second compound 3.16 µM, first compound 0.01 µM): 64.2%
- viability, T/C (second compound 3.16 µM, first compound 0.0316 µM): 49.6%
- viability, T/C (second compound 3.16 µM, first compound 0.1 µM): 42.6%
- viability, T/C (second compound 10 µM, first compound 0.000316 µM): 37.1%
- viability, T/C (second compound 10 µM, first compound 0.001 µM): 39.8%
- viability, T/C (second compound 10 µM, first compound 0.00316 µM): 35.1%
- viability, T/C (second compound 10 µM, first compound 0.01 µM): 31.3%
- viability, T/C (second compound 10 µM, first compound 0.0316 µM): 23.1%
- viability, T/C (second compound 10 µM, first compound 0.1 µM): 29.3%

SMILES: C#Cc1c(F)ccc2cc(O)cc(-c3ncc4c(N5CC6CCC(C5)N6)nc(OCC56CCCN5CC(F)C6)nc4c3F)c12 (centres undefined) + COc1c(OCCCN2CCOCC2)ccc2c3n(c(=NC(=O)c4cnc(N)nc4)nc12)CCN3
- IC50 (second compound 0.00316 µM): > 10000 nM
- IC50 (second compound 0.01 µM): > 10000 nM
- IC50 (second compound 0.0316 µM): > 10000 nM
- IC50 (second compound 0.1 µM): < 31.6 nM
- IC50 (second compound 0.316 µM): < 31.6 nM
- IC50 (second compound 1 µM): < 31.6 nM
- viability, T/C (second compound 0.00316 µM, first compound 0.0316 µM): 102%
- viability, T/C (second compound 0.00316 µM, first compound 0.1 µM): 93.1%
- viability, T/C (second compound 0.00316 µM, first compound 0.316 µM): 93%
- viability, T/C (second compound 0.00316 µM, first compound 1 µM): 82.5%
- viability, T/C (second compound 0.00316 µM, first compound 3.16 µM): 116%
- viability, T/C (second compound 0.00316 µM, first compound 10 µM): 109%
- viability, T/C (second compound 0.01 µM, first compound 0.0316 µM): 95.1%
- viability, T/C (second compound 0.01 µM, first compound 0.1 µM): 99.9%
- viability, T/C (second compound 0.01 µM, first compound 0.316 µM): 105%
- viability, T/C (second compound 0.01 µM, first compound 1 µM): 99.5%
- viability, T/C (second compound 0.01 µM, first compound 3.16 µM): 114%
- viability, T/C (second compound 0.01 µM, first compound 10 µM): 111%
- viability, T/C [1]: 80.5%
- viability, T/C [2]: 78.8%
- viability, T/C (second compound 0.0316 µM, first compound 0.316 µM): 79.8%
- viability, T/C (second compound 0.0316 µM, first compound 1 µM): 84.8%
- viability, T/C (second compound 0.0316 µM, first compound 3.16 µM): 79.2%
- viability, T/C (second compound 0.0316 µM, first compound 10 µM): 87.5%
- viability, T/C [3]: 45.1%
- viability, T/C [4]: 46.4%
- viability, T/C (second compound 0.1 µM, first compound 0.316 µM): 46.8%
- viability, T/C (second compound 0.1 µM, first compound 1 µM): 49.2%
- viability, T/C (second compound 0.1 µM, first compound 3.16 µM): 39.6%
- viability, T/C (second compound 0.1 µM, first compound 10 µM): 49.5%
- viability, T/C [5]: 20.2%
- viability, T/C [6]: 14.5%
- viability, T/C (second compound 0.316 µM, first compound 0.316 µM): 20.5%
- viability, T/C (second compound 0.316 µM, first compound 1 µM): 22.3%
- viability, T/C (second compound 0.316 µM, first compound 3.16 µM): 22.3%
- viability, T/C (second compound 0.316 µM, first compound 10 µM): 27.1%
- viability, T/C [7]: 7.11%
- viability, T/C [8]: 6.61%
- viability, T/C (second compound 1 µM, first compound 0.316 µM): 8.19%
- viability, T/C (second compound 1 µM, first compound 1 µM): 8.13%
- viability, T/C (second compound 1 µM, first compound 3.16 µM): 5.78%
- viability, T/C (second compound 1 µM, first compound 10 µM): 9.52%
